# Laboratory results from publication PMC12018048, “Intranasal kisspeptin administration rapidly stimulates gonadotropin release in humans” (eBioMedicine, 2025).
# Tested on: plasma LH
# Test: Intranasal kisspeptin-54, plasma LH in adult C57BL/6J male mice
# Assay type: in vivo, mouse
# Details: intranasal, 25 min post administration, N = 2
# Protocol: Saline (placebo) or kisspeptin-54 were intranasally administered using a customised and unsharpened 2 mm long and 0.3 mm wide hypodermic needle (BD PrecisionGlide™; 30G; ref. 305106). Male mice were restrained and a single volume of 30 μL of the solution was delivered in one randomly chosen nostril with either 0.9% saline or different concentrations of kisspeptin-54 (1, 3, 12.8, 30, or 50 nM; equivalent to 0.001–0.05 nmol/kg). The protocol involved N = 5 mice per group, except concentrations 12.8 nM where N = 6 and 30 nM where N = 7. […] LH levels were assessed using a tail-tip serial blood sampling as previously reported.[64]^,[65] Briefly, samples containing 4 μL of whole blood were collected every 10 min over a 70-min-long period from each animal. The first sampling point was taken as baseline LH level (−5 min), and saline or kisspeptin-54 were administered at timepoint 0 min. Whole blood was collected into Eppendorf tubes pre-loaded with 50 μL of 0.1 M phosphate-buffered saline (PBS)-0.05% Tween, thoroughly mixed, and snap-frozen with dry ice and stored at −80 °C.
# LH levels were measured using an established in-house and ultrasensitive mouse LH ELISA method as previously validated.[66] A primary coating antibody (bovine LHβ subunit, 518B7; L. Sibley; University of California, UC Davis, RRID AB_2756886) was used at a 1:1000 dilution in combination with a detection primary antibody (rabbit LH antiserum, AFP240580Rb, RRID AB_2665533; NIDDK- NHPP) used at 1:10,000 dilution, and a secondary horseradish peroxidase-conjugated antibody (goat anti-rabbit; Vector Laboratories, PI-1000, RRID AB_2336198) used at 1:10,000 dilution. The assay standard curve used a mouse LH-RP (AFP5306A, A. F. Parlow, National Hormone and Peptide Program; supplied by Golden West BioSolutions, California, USA; catalogue # TLIA1053.03). The assay sensitivity of this LH ELISA was 0.04 ng/mL, intra-assay coefficient of variation 4.1%, and inter-assay coefficient of variation 7.3%.
# Statistical analyses were performed using GraphPad Prism (version 9.4.1). Data are presented as mean ± SEM. Normality of the data was determined using the Shapiro–Wilk test. The analysis considered increment in LH levels when average post-administration values were above significance (P < 0.05) compared to basal levels (−5 min) using repeated measures two-way ANOVA with Fishers least significant difference (LSD) test. Integrated LH response to kisspeptin-54 administration as indicated using the area under the curve (AUC) analysis when all peaks were above baseline values. The difference in AUC between groups was compared by one-way ANOVA with Fisher’s LSD test. In all cases, P < 0.05 was considered statistically significant.
substance,measurement,value
"Dye-C-GTSLSPPPESSGSRQQPGLSAPHSRQIPAPQGAVLVQREKDLPNYNWNSFGLRF [kisspeptin-54-D2, Kisspeptin-54 labelled with a D2 fluorescent probe, developed by Cisbio Bioassays]",Plasma LH response to the fluorescently tagged peptide,robust LH increase
